Laboratory results taken from patent US12216122B2, “Compositions and methods relating to detection, inhibition, and imaging of indoleamine 2,3-dioxygenase 1 (IDO1)” (Regeneron Pharmaceuticals, Inc., priority 2019, dated 2025).
Like-named read-outs stand apart in the source and are kept apart here. Bridge positions count the residues as written; N and C are the ends. Square brackets hold non-standard residues; d marks the D form. Triazole bridges read from a SMILES are 1,4-linked. Peptide text beside a SMILES is read from it. * marks the point of attachment. Biotinyl(3aR,4R,6aS) = O=C1N[C@@H]2[C@@H](CS[C@@H]2CCCCC(=O)*)N1; dTrp(1-Me) = Cn1cc(C[C@@H](N)C(=O)O)c2ccccc21; Lys(N3) = [N-]=[N+]=NCCCC[C@H](N)C(=O)O; AEEEA = NCCOCCOCCOCC(=O)O; Pra = C#CC[C@H](N)C(=O)O

Tests used:
murine IDO1 protein = murine IDO1 protein (Mus musculus, UniProt P28776); experiment: ELISA against murine IDO1 protein (species cross-reactivity); type: binding
murine IDO1 protein, sequence (P28776 whole entry): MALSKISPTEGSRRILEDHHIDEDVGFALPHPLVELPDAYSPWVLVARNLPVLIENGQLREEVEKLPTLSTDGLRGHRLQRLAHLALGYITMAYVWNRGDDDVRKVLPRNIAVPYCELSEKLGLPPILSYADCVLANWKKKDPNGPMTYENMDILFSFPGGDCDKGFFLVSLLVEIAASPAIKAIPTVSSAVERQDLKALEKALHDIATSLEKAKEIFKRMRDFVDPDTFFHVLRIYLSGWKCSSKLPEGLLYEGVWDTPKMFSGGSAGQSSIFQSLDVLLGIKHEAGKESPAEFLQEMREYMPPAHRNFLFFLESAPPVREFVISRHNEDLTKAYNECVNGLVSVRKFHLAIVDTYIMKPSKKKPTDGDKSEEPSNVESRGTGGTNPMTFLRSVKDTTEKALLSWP
Experimental: Protocol: A black 96-well NEUTRAVIDIN® Coated High Binding Capacity plate (15510, Pierce) was coated with 2 μM biotinylated macrocyclic peptide ligand in TBS (25 mM Tris-HCl, 150 mM NaCl, pH 7.6) for 2 h at room temperature. The plate was aspirated and then washed with Wash Buffer (0.05% (v/v) TWEEN® 20 in PBS, 6×). His-tagged IDO1 human recombinant protein (71182, BPS Biosciences) was serially diluted in Wash Buffer (from 200 to 0 nM) and incubated in the designated microwells for 1 h at room temperature. Microwells were aspirated and subsequently washed with Wash Buffer (11×). To detect the bound IDO1 protein, Alkaline Phosphatase (AP)-conjugated Anti-6×HIS TAG® antibody [HIS-1] (ab49746, Abcam) was prepared at 1:10,000 dilution and added to the microwells for 1 h at room temperature. The plate was aspirated and washed with Wash Buffer (5×). ATTOPHOS® AP Fluorescent Substrate System (S1000, Promega) was employed to develop the microwells. Using an excitation wavelength of 430 nm, fluorescent emission at 535 nm was recorded by Beckman Coulter DTX880 photometer. Titration curves were fit using a four-parameter regression curve fitting program to determine EC50 values.
To test for cross-reactivity with murine IDO1, the human IDO1 targeted macrocyclic peptide ligands were assayed against the murine IDO1 protein by ELISA.

[1] = molecular target: T1, His-tagged IDO1 human recombinant protein (Homo sapiens, UniProt P14902); experiment: IDO1 ELISA (Affinity Assay): sandwich ELISA, biotinylated ligand immobilized on NEUTRAVIDIN plate; type: binding
T1 construct: purchased BPS Biosciences 71182
T1 sequence (P14902 whole entry): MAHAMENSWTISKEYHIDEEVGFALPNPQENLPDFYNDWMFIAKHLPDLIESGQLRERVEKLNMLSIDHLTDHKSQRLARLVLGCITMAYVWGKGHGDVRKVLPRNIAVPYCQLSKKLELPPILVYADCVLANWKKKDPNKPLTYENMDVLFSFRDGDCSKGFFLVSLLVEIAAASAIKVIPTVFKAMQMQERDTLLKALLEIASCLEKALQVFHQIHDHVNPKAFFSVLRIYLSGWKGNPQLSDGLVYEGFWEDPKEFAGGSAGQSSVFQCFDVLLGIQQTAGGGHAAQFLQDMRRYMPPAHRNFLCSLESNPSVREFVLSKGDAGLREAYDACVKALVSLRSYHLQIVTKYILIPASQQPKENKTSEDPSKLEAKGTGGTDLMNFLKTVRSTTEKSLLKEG

[2] = Percent organic elution in reverse-phase HPLC (C18) as lipophilicity readout; type: physicochemical; conditions: Table 12; C18, A=water+0.1% TFA, B=acetonitrile+0.1% TFA
Source text: The predicted increase in lipophilicity for wyvay (SEQ ID NO:2) was experimentally confirmed by the percent organic (% B) elution during reverse-phase HPLC (RP-HPLC) using a C18 column where solvents A=water+0.1% TFA and B=acetonitrile+0.1% TFA.

[3] = molecular target: T1, His-tagged IDO1 human recombinant protein; experiment: IDO1 ELISA (Affinity Assay): sandwich ELISA, biotinylated ligand immobilized on NEUTRAVIDIN plate; type: binding; conditions: a solution of 200 nM macrocycle was immobilized; read-out: EC50, sandwich ELISA for human IDO1 protein against biotin-PEG3-modified macrocycle

EC50 ([1]; 2 μM biotinylated macrocycle immobilized, human IDO1 titrated 200 to 0 nM, read-out: EC50, sandwich ELISA for human IDO1 protein against biotin-PEG3-modified macrocycle) [nM] | EC50 ([1]; Example 9, read-out: Binding affinity (EC50) of prioritized Epitope 1 hits) [nM] | EC50 ([1]; Table 12, read-out: EC50) [nM] | HPLC % B [2] [%] | EC50 [3] [nM] | EC50 (murine IDO1 protein; Table 10, read-out: Mouse IDO EC50) [nM] | EC50 ([1]; Table 10, read-out: Human IDO EC50) [nM] | SMILES | Selectivity human versus mouse IDO1 by ELISA (murine IDO1 protein; FIG. 2F)
25 | 25 | 25 | 25.7 | – | – | – | C[C@H]1NC(=O)[C@@H](CCCNC(=N)N)NC(=O)[C@@H](Cc2ccc(O)cc2)NC(=O)[C@@H](Cc2c[nH]c3ccccc23)NC(=O)[C@@H](NC(=O)COCCOCCOCCNC(=O)CCCC[C@H]2SC[C@H]3NC(=O)N[C@H]32)CC2=CC(CCCC[C@@H](C(N)=O)NC(=O)[C@@H](Cc3ccc(O)cc3)NC1=O)N=N2 (some centres unmarked) [wyray, biotin-PEG3-Cy(wyray)] | selectivity for the human recombinant protein over mouse is observed
– | – | – | – | 81 | 17 | 91 ± 22 | Cn1cc(C[C@H]2NC(=O)[C@@H](CO)NC(=O)[C@@H](Cc3ccc(O)cc3)NC(=O)[C@@H](CCCNC(=N)N)NC(=O)[C@@H](NC(=O)COCCOCCOCCNC(=O)CCCC[C@H]3SC[C@H]4NC(=O)N[C@H]43)Cc3cn(nn3)CCCC[C@@H](C(N)=O)NC(=O)[C@@H](CCCNC(=N)N)NC2=O)c2ccccc21 [rys(Me-Trp)r, biotin-PEG3-Cy(rys(Me-Trp)r)] ({Biotinyl(3aR,4R,6aS)-AEEEA}-[Pra][dR][dY][dS][dTrp(1-Me)][dR][Lys(N3)]-NH2; triazole 1-7) | –
